In brackets after ≈: the same amount, converted by molar mass. One block for each compound: values may come before it.
Columns and labels:
[1] = Inhibition of wildtype Acinetobacter baumannii MsbA preincubated for 30 mins followed by ATP addition and measured after 1 hrs by Transcreener ADP2 F1 assay
[2] = Plasma protein binding in C57BL/6 mouse at 1000 to 100000 ng/ml by equilibrium dialysis based LC-MS/MS analysis; assay type: ADME, cell-free; details: dose 1000-100000 ng/ml, read-out: PPB (converted)
Acinetobacter baumannii [3] = experiment: Antibacterial activity against Acinetobacter baumannii ATCC19606 assessed as bacterial growth inhibition incubated for 18 to 20 hrs by microbroth dilution method; assay type: functional; details: time 18-20 hrs
Acinetobacter baumannii [4] = experiment: (§1) Antibacterial activity against Acinetobacter baumannii CLB21655 infected in female DBA mouse lung infection model assessed as fold change in colony forming units in lung at 300 mg/kg, sc pre-infected with bacteria for 2 hrs followed by thrice daily compound administration with 6 hrs interval and measured after 24 hrs relative to control; assay type: functional
Acinetobacter baumannii [5] = experiment: (§2) Antibacterial activity against Acinetobacter baumannii CLB21655 infected in female DBA mouse blood stream infection model assessed as fold change in colony forming units in spleen at 300 mg/kg, sc pre-infected with bacteria for 0.5 hrs followed by once daily compound administration and measured after 8 hrs relative to control; assay type: functional
[6] = AUC (0 to infinity) in male C57BL/6 mouse at 300 mg/kg, sc administered 3 times a day with 3 hrs interval and measured after 24 hrs by LC-MS/MS analysis; assay type: ADME, organism-based; details: mouse, in vivo, sc, 300 mg/kg, 24 h
[7] = Plasma protein binding in dog at 1000 to 100000 ng/ml by equilibrium dialysis based LC-MS/MS analysis; assay type: ADME, cell-free, Canis lupus familiaris; details: dose 1000-100000 ng/ml, read-out: PPB (converted)
[8] = Cytotoxicity against GFP fused human MT4 cells cultured under serum free condition for 24 hrs by CellTiter-Glo assay; assay type: toxicity, cell-based; details: GFP fused MT4 cells
[9] = Cmax in male C57BL/6 mouse at 300 mg/kg, sc administered 3 times a day with 3 hrs interval and measured after 24 hrs by LC-MS/MS analysis; assay type: ADME, organism-based; details: in vivo
[10] = Cmax in male C57BL/6 mouse at 300 mg/kg, sc administered once in a day and measured after 24 hrs by LC-MS/MS analysis; assay type: ADME, organism-based; details: in vivo
Acinetobacter baumannii [11] = experiment: as §2, with “reduction” for “fold change”, “bacterial burden” for “colony forming units”, “(reference value: 6.5 log10CFU/g)” for “relative to control”; assay type: functional
Acinetobacter baumannii [12] = experiment: Antibacterial activity against Acinetobacter baumannii ATCC19606 incubated for 18 to 20 hrs in presence of 10% human serum by microbroth dilution method; assay type: functional; details: time 18-20 hrs
[13] = AUC (0 to infinity) in male C57BL/6 mouse at 300 mg/kg, sc administered once in a day and measured after 24 hrs by LC-MS/MS analysis; assay type: ADME, organism-based; details: mouse, in vivo, sc, 300 mg/kg, 24 h
Acinetobacter baumannii [14] = experiment: as §1, with “reduction” for “fold change”, “bacterial burden” for “colony forming units”, “(reference value: 6.3 log10CFU/g)” for “relative to control”; assay type: functional
Acinetobacter baumannii [15] = experiment: Antibacterial activity against Acinetobacter baumannii ATCC19606 incubated for 18 to 20 hrs in presence of 50% mouse serum by microbroth dilution method; assay type: functional; details: time 18-20 hrs
Acinetobacter baumannii [16] = experiment: Selectivity ratio of MIC95 for antibacterial activity against Acinetobacter baumannii ATCC19606 in the presence of 10% human serum to MIC95 for antibacterial activity against Acinetobacter baumannii ATCC19606; assay type: functional
[17] = Plasma protein binding in human at 1000 to 100000 ng/ml by equilibrium dialysis based LC-MS/MS analysis; assay type: ADME, cell-free; details: dose 1000-100000 ng/ml, read-out: PPB (converted)
Acinetobacter baumannii [18] = experiment: as §1, with “with 3” for “with 6”; assay type: functional
Acinetobacter baumannii [19] = experiment: (§3) Antibacterial activity against Acinetobacter baumannii CLB21655 infected in female DBA mouse lung infection model assessed as reduction in bacterial burden in lung at 300 mg/kg, sc pre-infected with bacteria for 2 hrs followed by once daily compound administration and measured after 24 hrs (reference value: 9.7 log10CFU/g); assay type: functional
Acinetobacter baumannii [20] = experiment: Antibacterial activity against Acinetobacter baumannii ATCC19606 incubated for 18 to 20 hrs in presence of 1% of human serum by microbroth dilution method; assay type: functional; details: time 18-20 hrs
Acinetobacter baumannii [21] = experiment: as §1, with “once” for “thrice”, “administration” for “administration with 6 hrs interval”; assay type: functional
Acinetobacter baumannii [22] = experiment: as §3, with “mouse blood stream” for “mouse lung”, “in spleen” for “in lung”, “at 200” for “at 300”, “for 0.5” for “for 2”, “after 8” for “after 24”, “value: 6.5” for “value: 9.7”; assay type: functional
Acinetobacter baumannii [23] = experiment: as §2, with “10” for “300”, “thrice” for “once”; assay type: functional
Acinetobacter baumannii [24] = experiment: Selectivity ratio of MIC95 for antibacterial activity against Acinetobacter baumannii ATCC19606 in the presence of 1% human serum to MIC95 for antibacterial activity against Acinetobacter baumannii ATCC19606; assay type: functional
Acinetobacter baumannii [25] = experiment: as §3, with “mouse blood stream” for “mouse lung”, “in spleen” for “in lung”, “at 100” for “at 300”, “for 0.5” for “for 2”, “after 8” for “after 24”, “value: 6.5” for “value: 9.7”; assay type: functional
Acinetobacter baumannii [26] = experiment: as §3, with “thrice” for “once”, “administration with 3 hrs interval” for “administration”; assay type: functional
Acinetobacter baumannii [27] = experiment: as §2, with “100” for “300”; assay type: functional
Acinetobacter baumannii [28] = experiment: as §2, with “200” for “300”; assay type: functional
Acinetobacter baumannii [29] = experiment: as §3, with “mouse blood stream” for “mouse lung”, “in spleen” for “in lung”, “for 0.5” for “for 2”, “by thrice” for “by once”, “after 8” for “after 24”, “value: 6.3” for “value: 9.7”; assay type: functional
Acinetobacter baumannii [30] = experiment: (§4) Antibacterial activity against Acinetobacter baumannii CLB21655 infected in female DBA mouse blood stream infection model assessed as reduction in bacterial burden in spleen at 10 mg/kg, sc pre-infected with bacteria for 0.5 hrs followed by thrice daily compound administration and measured after 8 hrs (reference value: 6.3 log10CFU/g); assay type: functional
Acinetobacter baumannii [31] = experiment: as §4, with “once” for “thrice”, “5.85” for “6.3”; assay type: functional
Acinetobacter baumannii [32] = experiment: as §3, with “10” for “300”, “by” for “by once daily”, “6.3” for “9.7”; assay type: functional
Acinetobacter baumannii [33] = experiment: as §1, with “10” for “300”, “by” for “by thrice daily”, “administration” for “administration with 6 hrs interval”; assay type: functional
Acinetobacter baumannii [34] = experiment: as §2, with “10” for “300”; assay type: functional
Acinetobacter baumannii [35] = experiment: (§5) Antibacterial activity against Acinetobacter baumannii CLB21655 infected in female DBA mouse lung infection model assessed as reduction in bacterial burden in lung at 160 mg/kg, sc pre-infected with bacteria for 2 hrs followed by compound administration and measured after 24 hrs in presence of ceftazidime (reference value: 9.7 log10CFU/g); assay type: functional
Acinetobacter baumannii [36] = experiment: (§6) Antibacterial activity against Acinetobacter baumannii CLB21655 infected in female DBA mouse lung infection model assessed as fold change in colony forming units in lung at 160 mg/kg, sc pre-infected with bacteria for 2 hrs followed by compound administration and measured after 24 hrs in presence of ceftazidime relative to control; assay type: functional
Acinetobacter baumannii [37] = experiment: as §6, with “640” for “160”, “avibactam” for “ceftazidime”; assay type: functional
Acinetobacter baumannii [38] = experiment: as §5, with “640” for “160”, “avibactam” for “ceftazidime”; assay type: functional

EC50 [1]: 69 nM
fraction unbound [2]: 0.002
MIC95 (Acinetobacter baumannii [3]): 0.277 µM (≈ 0.223 µg/mL)
AUC [6]: 22200 µM·h
fraction unbound [7]: 0.004
Cmax [9]: 626 µM
Cmax [10]: 662 µM
MIC95 (Acinetobacter baumannii [12]): 6.25 µM
AUC [13]: 2270 µM·h
MIC95 (Acinetobacter baumannii [15]): 50 µM
fraction unbound [17]: 0.006
SMILES: O=C(O)c1cc(CN2CC(Oc3ccc(NS(=O)(=O)c4cnn(-c5ccc(F)cc5)c4)c(C(=O)O)c3)C2)ccc1NS(=O)(=O)c1cnn(-c2ccc(F)cc2)c1
fold change (FC) (Acinetobacter baumannii [4]): 1.9
fold change (FC) (Acinetobacter baumannii [5]): 3.2
EC50 at 24 h [8]: > 42 µM
Activity (Acinetobacter baumannii [11]): 3.3 log10CFU/g
Activity (Acinetobacter baumannii [14]): 4.4 log10CFU/g
Selectivity ratio (Acinetobacter baumannii [16]): 23

EC50 [1]: 50 nM
fraction unbound [2]: 0.004
MIC95 (Acinetobacter baumannii [3]): 0.277 µM (≈ 0.228 µg/mL)
MIC95 (Acinetobacter baumannii [20]): 2.03 µM
MIC95 (Acinetobacter baumannii [15]): 50 µM
SMILES: O=C(CCCOc1ccc(NS(=O)(=O)c2cnn(-c3ccc(F)cc3)c2)c(C(=O)O)c1)Nc1ccc(NS(=O)(=O)c2cnn(-c3ccc(F)cc3)c2)c(C(=O)O)c1
fold change (FC) (Acinetobacter baumannii [18]): 1.4
Activity (Acinetobacter baumannii [19]): 8.8 log10CFU/g
fold change (FC) (Acinetobacter baumannii [21]): 0.9
fold change (FC) (Acinetobacter baumannii [5]): 0.36
Activity (Acinetobacter baumannii [22]): 6.5 log10CFU/g
fold change (FC) (Acinetobacter baumannii [23]): 1.9
EC50 at 24 h [8]: > 42 µM
Selectivity ratio (Acinetobacter baumannii [24]): 7.3
Activity (Acinetobacter baumannii [25]): 5.9 log10CFU/g
Activity (Acinetobacter baumannii [11]): 6.2 log10CFU/g
Activity (Acinetobacter baumannii [26]): 8.3 log10CFU/g
fold change (FC) (Acinetobacter baumannii [27]): 0.63
fold change (FC) (Acinetobacter baumannii [28]): 0
Activity (Acinetobacter baumannii [29]): 4.4 log10CFU/g

SMILES: CN(C)c1cc(NC(=O)CNC(C)(C)C)c(O)c2c1C[C@H]1C[C@H]3[C@H](N(C)C)C(O)=C(C(N)=O)C(=O)[C@@]3(O)C(O)=C1C2=O [TIGECYCLINE]
Activity (Acinetobacter baumannii [30]): 3.5 log10CFU/g
fold change (FC) (Acinetobacter baumannii [23]): 2.8
Activity (Acinetobacter baumannii [31]): 2.85 log10CFU/g
Activity (Acinetobacter baumannii [32]): 3.5 log10CFU/g
fold change (FC) (Acinetobacter baumannii [33]): 2.8
fold change (FC) (Acinetobacter baumannii [34]): 3

SMILES: NC(=O)[C@@H]1CC[C@@H]2CN1C(=O)N2OS(=O)(=O)O [AVIBACTAM]
Activity (Acinetobacter baumannii [35]): 7.6 log10CFU/g
fold change (FC) (Acinetobacter baumannii [36]): 2.1

SMILES: CC(C)(O/N=C(\C(=O)N[C@@H]1C(=O)N2C(C(=O)[O-])=C(C[n+]3ccccc3)CS[C@H]12)c1csc(N)n1)C(=O)O [CEFTAZIDIME]
fold change (FC) (Acinetobacter baumannii [37]): 2.1
Activity (Acinetobacter baumannii [38]): 7.6 log10CFU/g

Reference: ChEMBL document CHEMBL5584343, “Cerastecin Inhibition of the Lipooligosaccharide Transporter MsbA to Combat Acinetobacter baumannii: From Screening Impurity to In Vivo Efficacy” (J Med Chem, 2024)
